Data: paper PMC4924314, “Vertebrate TFPI-2 C-terminal peptides exert therapeutic applications against Gram-negative infections” (BMC Microbiology, 2016)

What was measured:
[1] = test system: E. coli LPS-induced septic shock in Balb/c mice; test: LPS-induced septic shock mouse model (survival, weight); type: in vivo; conditions: 10 mg/kg E. coli LPS i.p.
Method: (§1) Fig. 6 Treatment of LPS-induced septic shock mice with a mouse TFPI-2 derived peptide. Septic shock in Balb/c mice was induced by i.p. injection of 10 mg/kg E. coli LPS. […] Statistical comparisons of survival curves were performed using the Mantel-Cox’s test. ***P ≤ 0.0003. b Weight was determined daily. c Clotting times of aPTT and PT was measured in citrate plasma 24 h after LPS injection (n = 8). d The indicated cytokines were analyzed in plasma 24 h after LPS injection (n = 8). Statistical analysis for C-D, one-way ANOVA with Tukey’s multiple comparisons post-test was used. **P ≤ 0.003, ****P ≤ 0.0001
(§2) Male/female balb/c mice (8 weeks, 21 ± 5 g) were injected intraperitoneally (i.p.) with 10 mg E. coli 0111:B4 LPS (Sigma) per kg of body weight. Thirty minutes after LPS injection, 0.5 mg VKG24 (25 mg/kg) or PBS buffer alone (control) were injected i.p. into the mice. Status and weight were monitored daily for seven days. Mice where immobilization and/or shaking was observed were euthanized by an overdose of isoflurane (Abbott) and counted as non-survivors. For determination of cytokine levels in mouse plasma, animals were sacrificed 24 h after LPS injection. The blood was collected immediately by cardiac puncture into citrate tubes.

[2] = test system: intrinsic pathway of coagulation; test: Activated partial thromboplastin time (aPTT) in mouse plasma; type: biochemical; conditions: peptide 50 μM, n = 3 (Figure S2)
Method: All clotting times were analyzed using a coagulometer (Amelung, Lemgo, Germany). For determination of activated partial thromboplastin time (aPTT), 100 μl of a kaolin-containing solution (Technoclone) was added to the 100 μl of fresh citrate plasma or citrate plasma peptide mix and incubated at 37 °C for 200 s before clot formation was initiated by adding 100 μl of 30 mM fresh CaCl2 solution. For detection of prothrombin time (PT, thromboplastin reagent (Trinity Biotech)) 100 μl of fresh citrate plasma were incubated 60 s at 37 °C before clot formation was initiated by adding 100 μl of clotting reagent. Additional file 1: Figure S1. Phylogenetic tree analysis of full-length and reminder protein except C-terminal TFPI-2 from vertebrates. Phylogenetic tree from 72 vertebrate TFPI-2 species was constructed using Neighbour-Joining tree with 1000 bootstrap replications on MEGA6. (PDF 54 kb) Additional file 2: Figure S2. […] (Left) The bactericidal activity of mouse VKG24 peptide was assessed in physiological buffer conditions using viable count analysis. […] The antimicrobial activity was determined by plating serial dilutions of bacteria on TH agar plates and number of cfu was counted after overnight incubation. (Right) The activated partial thromboplastin time (aPTT) was determined by addition of buffer or 50 μM of VKG24 peptide to mouse plasma. […]

[3] = test system: intrinsic and extrinsic coagulation pathways; test: Clotting times (aPTT, PT) in citrate plasma of LPS-injected mice; type: in vivo, mouse; conditions: peptide ~25 mg/kg i.p.
Method: Fig. 6 Treatment of LPS-induced septic shock mice with a mouse TFPI-2 derived peptide. […] Statistical analysis for C-D, one-way ANOVA with Tukey’s multiple comparisons post-test was used. **P ≤ 0.003, ****P ≤ 0.0001
as §2
All clotting times were analyzed using a coagulometer (Amelung, Lemgo, Germany). For determination of activated partial thromboplastin time (aPTT), 100 μl of a kaolin-containing solution (Technoclone) was added to the 100 μl of fresh citrate plasma or citrate plasma peptide mix and incubated at 37 °C for 200 s before clot formation was initiated by adding 100 μl of 30 mM fresh CaCl2 solution. For detection of prothrombin time (PT, thromboplastin reagent (Trinity Biotech)) 100 μl of fresh citrate plasma were incubated 60 s at 37 °C before clot formation was initiated by adding 100 μl of clotting reagent.

E. coli ATCC 25922 = test: Viable count analysis in mouse plasma; type: cell-based, Escherichia coli; conditions: E. coli ATCC 25922, viable count, mouse plasma (Figure S2)
Method: E. coli were grown to mid-exponential phase in Todd-Hewitt (TH). Bacteria were washed and diluted in 10 mM Tris, pH 7.4 either alone or with 20 % human or mouse (BALB/c) citrate-plasma. Bacterial (2 × 10^6 cfu/ml) were incubated in 50 μl, at 37 °C for 1 h with the C-terminal TFPI-2 derived peptides at the indicated concentrations. Serial dilutions of the incubation mixture were plated on TH agar, followed by incubation at 37 °C overnight and cfu determination. Additional file 1: Figure S1. Phylogenetic tree analysis of full-length and reminder protein except C-terminal TFPI-2 from vertebrates. Phylogenetic tree from 72 vertebrate TFPI-2 species was constructed using Neighbour-Joining tree with 1000 bootstrap replications on MEGA6. (PDF 54 kb) Additional file 2: Figure S2. Activities of TFPI-2 C-terminal derived peptides in mouse plasma. (Left) The bactericidal activity of mouse VKG24 peptide was assessed in physiological buffer conditions using viable count analysis. E. coli ATCC 25922 were grown to mid-logarithmic phase and incubated with varying concentrations of peptide. The antimicrobial activity was determined by plating serial dilutions of bacteria on TH agar plates and number of cfu was counted after overnight incubation. (Right) The activated partial thromboplastin time (aPTT) was determined by addition of buffer or 50 μM of VKG24 peptide to mouse plasma. […]

[4] = test system: IL-6, MCP-1, IFN-γ, IL-10; test: Cytokine assay in plasma of LPS-injected mice; type: in vivo, mouse; conditions: 24 h after LPS injection, peptide ~25 mg/kg i.p., n = 8
Method: as §1, §2
Cytokines IL-6, IL-10, MCP-1, INF-γ and TNF-α were measured in plasma from mice infected by E. coli LPS (with or without peptide treatment) using the Cytometric bead array; mouse inflammation kit (Becton Dickinson AB) according to the manufacturer’s instructions. All plasma samples were stored at −80 °C before the analysis.

[5] = citrate plasma 24 h after LPS injection, n = 8

Sequence: VKGWKKPKRWKIGDFLPRFWKHLS [VKG24, mouse TFPI-2 C-terminal derived peptide (O35536)]
- survival rate ([1]; peptide 0.5 mg/mouse (~25 mg/kg) i.p. 30 min after LPS, monitored 7 days): dramatic improvement
- body weight ([1]; peptide ~25 mg/kg i.p. 30 min after LPS, weight determined daily): started regaining their weight from day three
- anti-coagulant activity in mouse plasma (aPTT) [2]: potent
- coagulation PT time [3, 5]: significantly decreased
- coagulation aPTT time [3, 5]: significantly decreased
- coagulation aPTT and PT levels in survivors ([3]; survivors): completely normalized
- antimicrobial activity in mouse plasma (E. coli ATCC 25922): potent
- IFN-γ in plasma [4]: significant reduction
- IL-6 in plasma [4]: significant reduction
- IL-10 in plasma [4]: significant reduction
- MCP-1 in plasma [4]: significant reduction
